# Assay: method code SF-RC, from DOI: 10.1021/jf60225a019, PMID: 546944
row,SMILES,logP
1,COc1ccc(C(c2ccc(OC)cc2)C(C)(C)C)cc1,3.57
2,CCOc1ccc(C(c2ccc(C)cc2)C(C)Cl)cc1 (stereo unspecified),3.19
3,CCOc1ccc(C(c2ccc(OCC)cc2)C(C)(C)C)cc1,3.16
4,CCOc1ccc(C(c2ccc(OCC)cc2)C(C)(C)Cl)cc1,3.25
5,CCOc1ccc(C(c2ccc(OCC)cc2)C(C)(Cl)Cl)cc1,3.64
6,CCOc1ccc(C(c2ccc(OCC)cc2)C(C)[N+](=O)[O-])cc1 (stereo unspecified),3.45
7,CCOc1ccc(C(c2ccc(C)cc2)C(C)C)cc1 (stereo unspecified),3.55
8,CCOc1ccc(C(c2ccc(C)cc2)C(C)[N+](=O)[O-])cc1 (stereo unspecified),3.46

# Next, values leading:
row,logP,SMILES
1,3.58,CCOc1ccc(C(c2ccc(OCC)cc2)C(C)Cl)cc1 (stereo unspecified)
2,3.65,CCOc1ccc(C(c2ccc(OCC)cc2)C(Cl)Cl)cc1
3,3.61,CCOc1ccc(C(c2ccc(OCC)cc2)C(C)C)cc1
